Where two headings read alike, the source gives them in different places.
Tests used:
hMOR = hMOR (Homo sapiens, UniProt P35372); test: Receptor binding with [3H]diprenorphine at hMOR
hKOR = hKOR (Homo sapiens, UniProt P41145); test: Receptor binding with [3H]diprenorphine at hKOR
humanDOR = humanDOR (Homo sapiens, UniProt P41143); test: Receptor binding with [3H]diprenorphine at human DOR
[1] = PZM analogs, (n) = number of independent experiments, read-out: binding affinity Ki hMOR
[2] = PZM analogs, (n) = number of independent experiments, read-out: binding affinity Ki hKOR
[3] = PZM analogs, (n) = number of independent experiments, read-out: binding affinity Ki hDOR

Sequence of humanDOR (P41143 whole entry): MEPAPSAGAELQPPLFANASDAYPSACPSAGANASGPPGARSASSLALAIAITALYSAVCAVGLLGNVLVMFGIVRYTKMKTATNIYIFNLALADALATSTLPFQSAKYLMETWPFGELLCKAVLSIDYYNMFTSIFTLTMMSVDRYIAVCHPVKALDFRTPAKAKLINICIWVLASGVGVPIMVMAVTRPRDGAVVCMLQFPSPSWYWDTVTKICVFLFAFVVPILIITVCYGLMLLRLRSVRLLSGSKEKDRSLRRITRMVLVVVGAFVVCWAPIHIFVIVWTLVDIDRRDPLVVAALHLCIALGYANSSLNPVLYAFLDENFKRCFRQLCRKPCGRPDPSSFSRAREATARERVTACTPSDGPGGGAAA
Sequence of hMOR (P35372 whole entry): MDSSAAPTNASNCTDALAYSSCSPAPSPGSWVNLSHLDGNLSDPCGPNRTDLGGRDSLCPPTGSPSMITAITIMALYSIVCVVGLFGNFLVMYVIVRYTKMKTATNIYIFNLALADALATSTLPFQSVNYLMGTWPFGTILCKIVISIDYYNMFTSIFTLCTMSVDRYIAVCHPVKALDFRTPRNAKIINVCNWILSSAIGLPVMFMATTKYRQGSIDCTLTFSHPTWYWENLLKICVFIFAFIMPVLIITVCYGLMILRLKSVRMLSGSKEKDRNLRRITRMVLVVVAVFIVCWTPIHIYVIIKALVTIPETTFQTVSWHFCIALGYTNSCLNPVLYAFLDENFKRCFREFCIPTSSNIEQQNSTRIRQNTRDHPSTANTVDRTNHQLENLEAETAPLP
Sequence of hKOR (P41145 whole entry): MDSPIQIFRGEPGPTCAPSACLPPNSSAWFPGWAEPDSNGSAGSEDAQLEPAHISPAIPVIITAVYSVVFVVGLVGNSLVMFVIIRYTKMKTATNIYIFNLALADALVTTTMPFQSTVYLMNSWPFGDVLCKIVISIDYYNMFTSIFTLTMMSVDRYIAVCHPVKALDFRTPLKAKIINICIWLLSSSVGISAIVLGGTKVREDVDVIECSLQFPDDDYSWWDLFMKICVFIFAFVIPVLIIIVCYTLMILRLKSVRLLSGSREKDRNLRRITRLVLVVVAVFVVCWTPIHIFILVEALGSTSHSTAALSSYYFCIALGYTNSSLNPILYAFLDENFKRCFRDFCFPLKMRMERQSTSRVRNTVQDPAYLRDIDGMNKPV

SMILES: CN(C)[C@@H](CNC(=O)NCCc1ccsc1)Cc1ccccc1
- Ki (hMOR; [1]): 4200 nM
- Ki (hKOR; [2]): 8100 nM
- Ki (humanDOR; [3]): 25000 nM

SMILES: CN(C)[C@H](CNC(=O)NCCc1ccsc1)Cc1ccccc1
- Ki (hMOR; [1]): 350 nM
- Ki (hKOR; [2]): 3100 nM
- Ki (humanDOR; [3]): 4500 nM

SMILES: C[C@@H](Cc1ccsc1)NC(=O)NC[C@@H](Cc1ccccc1)N(C)C
- Ki (hKOR; [2]): 3100 nM
- Ki (humanDOR; [3]): 11000 nM

SMILES: C=CCN(C[C@H](Cc1ccccc1)N(C)C)C(=O)N[C@@H](C)Cc1ccsc1
- Ki (hMOR; [1]): 3200 nM
- Ki (hKOR; [2]): 1700 nM
- Ki (humanDOR; [3]): ~15000 nM

SMILES: C=CCN(C[C@H](Cc1ccccc1)N(C)C)C(=O)N[C@H](C)Cc1ccsc1
- Ki (hMOR; [1]): 4100 nM
- Ki (hKOR; [2]): 3100 nM
- Ki (humanDOR; [3]): ~15000 nM

SMILES: CN(C)[C@@H](CNC(=O)NC(C)(C)Cc1ccsc1)Cc1ccccc1
- Ki (hMOR; [1]): 180 nM
- Ki (hKOR; [2]): 960 nM
- Ki (humanDOR; [3]): 2400 nM

SMILES: CN(C)[C@H](CNC(=O)NC(C)(C)Cc1ccsc1)Cc1ccccc1
- Ki (hMOR; [1]): 210 nM
- Ki (hKOR; [2]): 790 nM
- Ki (humanDOR; [3]): 3000 nM

SMILES: CN(C)[C@@H](CNC(=O)NC(C)(C)Cc1ccccc1)Cc1ccccc1
- Ki (hMOR; [1]): 640 nM
- Ki (hKOR; [2]): 1100 nM
- Ki (humanDOR; [3]): 1000 nM

SMILES: CN(C)[C@H](CNC(=O)NC(C)(C)Cc1ccccc1)Cc1ccccc1
- Ki (hMOR; [1]): 490 nM
- Ki (hKOR; [2]): 930 nM
- Ki (humanDOR; [3]): 3300 nM

SMILES: CN(C)[C@@H](CNC(=O)NCCc1ccsc1)Cc1ccc(O)cc1
- Ki (hMOR; [1]): 1500 nM
- Ki (hKOR; [2]): 5200 nM
- Ki (humanDOR; [3]): 11000 nM

SMILES: CN(C)[C@H](CNC(=O)OCCc1ccsc1)Cc1ccc(O)cc1
- Ki (hMOR; [1]): 170 nM
- Ki (hKOR; [2]): 190 nM
- Ki (humanDOR; [3]): 570 nM

SMILES: CN[C@H](CNC(=O)NCCc1ccccc1)Cc1ccc(O)cc1
- Ki (hMOR; [1]): 290 nM

SMILES: C[C@H](Cc1ccsc1)NC(=O)NC[C@@H](Cc1ccc(O)cc1)N(C)C
- Ki (hKOR; [2]): 3100 nM
- Ki (humanDOR; [3]): 4100 nM

SMILES: C[C@@H](Cc1ccsc1)NC(=O)NC[C@@H](Cc1ccc(O)cc1)N(C)C
- Ki (hKOR; [2]): 2300 nM
- Ki (humanDOR; [3]): 4800 nM

SMILES: CN(C)[C@H](CNC(=O)CCCc1ccccc1)Cc1ccc(O)cc1
- Ki (hMOR; [1]): 72 nM
- Ki (hKOR; [2]): 100 nM
- Ki (humanDOR; [3]): 370 nM

SMILES: C[C@H](Cc1csc2ccccc12)NC(=O)NC[C@H](Cc1ccc(O)cc1)N(C)C
- Ki (hMOR; [1]): 43 nM
- Ki (hKOR; [2]): 67 nM
- Ki (humanDOR; [3]): 83 nM

SMILES: CC(C)N(C[C@H](Cc1ccc(O)cc1)N(C)C)C(=O)N[C@@H](C)c1cccc2ccccc12
- Ki (hMOR; [1]): 400 nM
- Ki (hKOR; [2]): 920 nM
- Ki (humanDOR; [3]): 570 nM

SMILES: CN(C)[C@@H](CNC(=O)NC(C)(C)Cc1ccsc1)Cc1ccc(O)cc1
- Ki (hMOR; [1]): 310 nM
- Ki (hKOR; [2]): 1300 nM
- Ki (humanDOR; [3]): 2900 nM

SMILES: CN(C)[C@@H](CNC(=O)NC(C)(C)Cc1ccccc1)Cc1ccc(O)cc1
- Ki (hMOR; [1]): 460 nM
- Ki (hKOR; [2]): 1500 nM
- Ki (humanDOR; [3]): 3600 nM

SMILES: C[C@@H](Cc1ccsc1)NC(=O)NC[C@H](Cc1ccnc(O)c1)N(C)C
- Ki (hMOR; [1]): 210 nM
- Ki (hKOR; [2]): 1200 nM
- Ki (humanDOR; [3]): 4100 nM

SMILES: Cc1cc(O)cc(C)c1C[C@@H](CNC(=O)NCCc1ccsc1)N(C)C
- Ki (hMOR; [1]): 6.2 nM
- Ki (hKOR; [2]): 27 nM
- Ki (humanDOR; [3]): 51 nM

SMILES: CN(C)[C@H](CNC(=O)NCCc1cn(Cc2ccccc2)nn1)Cc1ccc(O)cc1
- Ki (hMOR): 200 nM
- Ki (hKOR): 1400 nM
- Ki (humanDOR; [3]): 380 nM

SMILES: CN(CCCl)C(CNC(=O)NCCc1ccccc1)Cc1ccc(O)cc1 (stereo not shown)
- Ki (humanDOR; binding affinity Ki hDOR, PZM analogs, (n) = number of independent experiments): 360 nM

SMILES: CN(CCO)C(CNC(=O)NCCc1ccccc1)Cc1ccc(O)cc1 (stereo not shown)
- Ki (hMOR): 970 nM
- Ki (hKOR): 1300 nM
- Ki (humanDOR): 1800 nM

SMILES: CN[C@H](CNC(=O)N[C@@H](C)Cc1ccsc1)Cc1ccc(O)cc1
- Ki (hKOR; [2]): 240 nM
- Ki (humanDOR; [3]): 700 nM

SMILES: C[C@@H](Cc1ccsc1)NC(=O)NCC(Cc1ccc(O)cc1)N(C)Cc1ccccc1 (stereo partly shown)
- Ki (hMOR; [1]): 220 nM
- Ki (hKOR; [2]): 210 nM
- Ki (humanDOR; [3]): 720 nM

SMILES: COc1ccccc1CCNC(=O)NCC(Cc1ccc(O)cc1)N(C)C (stereo not shown)
- Ki (hMOR; [1]): 22 nM
- Ki (hKOR; [2]): 140 nM
- Ki (humanDOR; [3]): 150 nM

SMILES: COc1cccc(CCNC(=O)NCC(Cc2ccc(O)cc2)N(C)C)c1 (stereo not shown)
- Ki (hMOR; [1]): 110 nM
- Ki (hKOR; [2]): 1300 nM
- Ki (humanDOR; [3]): 220 nM

SMILES: COc1ccc(CCNC(=O)NCC(Cc2ccc(O)cc2)N(C)C)cc1 (stereo not shown)
- Ki (hMOR; [1]): 330 nM
- Ki (hKOR; [2]): 1500 nM
- Ki (humanDOR; [3]): 10000 nM

SMILES: CN(C)C(CNC(=O)NCCc1ccccc1F)Cc1ccc(O)cc1 (stereo not shown)
- Ki (hMOR; [1]): 43 nM
- Ki (hKOR; [2]): 440 nM
- Ki (humanDOR; [3]): 53 nM

SMILES: CN(C)C(CNC(=O)NCCc1cccc(F)c1)Cc1ccc(O)cc1 (stereo not shown)
- Ki (hMOR; [1]): 36 nM
- Ki (hKOR; [2]): 170 nM
- Ki (humanDOR; [3]): 250 nM
